We go through three compounds from publication PMC7028039, “Convergent evolution of the UbiA prenyltransferase family underlies the independent acquisition of furanocoumarins in plants” (The New Phytologist, 2019).

The target of series [1] is T1, FcPT1b (Ficus carica, UniProt A0A6S4PSN9).
T1 construct: full CDS with transit peptide, pGWB502 (35S promoter), transient expression in Nicotiana benthamiana leaves, microsomes
T1 sequence (A0A6S4PSN9 1-422): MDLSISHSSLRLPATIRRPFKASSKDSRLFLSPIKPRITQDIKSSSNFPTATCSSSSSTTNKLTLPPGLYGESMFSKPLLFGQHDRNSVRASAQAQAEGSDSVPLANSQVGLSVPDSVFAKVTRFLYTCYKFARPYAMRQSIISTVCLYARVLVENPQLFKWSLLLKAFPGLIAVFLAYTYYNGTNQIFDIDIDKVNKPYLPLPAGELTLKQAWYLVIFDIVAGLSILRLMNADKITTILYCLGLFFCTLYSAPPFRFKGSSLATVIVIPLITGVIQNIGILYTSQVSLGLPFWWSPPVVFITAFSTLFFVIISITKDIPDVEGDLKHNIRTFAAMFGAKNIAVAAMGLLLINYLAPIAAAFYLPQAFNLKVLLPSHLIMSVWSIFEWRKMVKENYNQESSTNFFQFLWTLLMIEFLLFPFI
In words: microsomal prenyltransferase assay, HPLC and LC-MS2 product identification. Format: biochemical. The settings on record: 50 µM umbelliferone, 200 µM DMAPP, 10 mM MgCl2; product demethylsuberosin (DMS).

For series [2], the target named is FcPT1a (Ficus carica, UniProt A0A6S4Q0J8). As to conditions: read-out: apparent Km; co-substrate DMAPP; Mg2+; 28 °C. How it is done: microsomal prenyltransferase assay, HPLC-PDA, nonlinear fit on FcPT1a | The apparent K m values of FcPT1a for umbelliferone and DMAPP were determined
Series [3] relates to CC(C)=CCOP(=O)(O)OP(=O)(O)O. In words: cells, lysate or membranes. The settings on record: co-substrate umbelliferone, Mg2+, 28 °C.

Regarding `CC(C)=CCOP(=O)(O)OP(=O)(O)O` [dimethylallyl diphosphate], in series [1], the “microsomal prenyltransferase assay, HPLC and LC-MS2 product identification” value is “UDT reaction mixtures composed of microsomes containing recombinant FcPT1a/b proteins yielded an enzymatic reaction product”. For orientation: Km means the concentration of substrate that gives half-maximal velocity. For the compound `O=c1ccc2ccc(O)cc2o1` [umbelliferone], the Km in series [2] was 35 ± 4 µM. In addition, the “microsomal prenyltransferase assay, HPLC and LC-MS2 product identification” value in series [1] is “recombinant FcPT1a/b proteins yielded an enzymatic reaction product concomitant with the consumption of umbelliferone”. With FcPT1a (Ficus carica), the Michaelis-Menten constant (Km) in series [3] is 17 ± 1 µM.
